The values below come from patent EP0749423B1, “PIPERIDINES AND PYRROLIDINES” (NOVO NORDISK A/S, priority 1994, dated 1995).

One assay relates to cultured liver cells. As to the kind of experiment: Glucose production from cultured rat hepatocytes (basal and glucagon stimulated glycogenolysis). The class given is cell-based. To be noted: Hepatocyte; for activity at 50 µM / activity at 32 µM: 70 min, glucose in medium after 70 minutes; for activity at 50 µM: test compound 50µM; for activity at 32 µM: test compound 32µM. The method, then: During the last 24 hours, the hepatocytes were cultured in the presence of high levels of insulin (5 nM) and glucose (15 mM), which result in the incorporation of glucose into glycogen. Therefore, at the time of the experiment, the cells mimic livers from fed animals. Experiments were initiated after 72 hours of culture by 2 times wash of cells and addition of a 20 mM HEPES experimental buffer including balanced salts, but without glucose. The test compound was added simultaneously with the experimental buffer. To some cultures, glucagon (0.5 nM) was added after 10 minutes in order to stimulate glucose production from liver cells. The glucose released into the media, reflecting the glucose production of the liver cells, was measured 70 minutes after the start of the experiment and standardized to cellular DNA content.

Another assay has as its target T1, liver α-1,6-glucosidase (Homo sapiens, UniProt P35573).
T1 construct: from tissue
As to the kind of experiment: Glycogen debranching enzyme activity (Brown and Brown method). It is filed as biochemical. The conditions noted are these: read-out: I.C.50 liver α-1,6-glucosidase.

In the next assay the target is Phosphorylase. The conditions noted are these: read-out: I.C.50 Phosphorylase; phosphorylase purchased from Sigma or extracted from rat livers.
[1] abbreviates: relative to basal glucose production (no addition with glucagon = 283%), read-out: Glucose production With glucagon (0.5nM).
Setting [2] is: basal, without glucagon, read-out: I.C.50 Liver cell glucose production: Basal.
Setting [3] is: read-out: I.C.50 Liver cell glucose production: Glucagon stimulated.

Where two headings read alike, the source gives them in different places.

T1 sequence (P35573 whole entry): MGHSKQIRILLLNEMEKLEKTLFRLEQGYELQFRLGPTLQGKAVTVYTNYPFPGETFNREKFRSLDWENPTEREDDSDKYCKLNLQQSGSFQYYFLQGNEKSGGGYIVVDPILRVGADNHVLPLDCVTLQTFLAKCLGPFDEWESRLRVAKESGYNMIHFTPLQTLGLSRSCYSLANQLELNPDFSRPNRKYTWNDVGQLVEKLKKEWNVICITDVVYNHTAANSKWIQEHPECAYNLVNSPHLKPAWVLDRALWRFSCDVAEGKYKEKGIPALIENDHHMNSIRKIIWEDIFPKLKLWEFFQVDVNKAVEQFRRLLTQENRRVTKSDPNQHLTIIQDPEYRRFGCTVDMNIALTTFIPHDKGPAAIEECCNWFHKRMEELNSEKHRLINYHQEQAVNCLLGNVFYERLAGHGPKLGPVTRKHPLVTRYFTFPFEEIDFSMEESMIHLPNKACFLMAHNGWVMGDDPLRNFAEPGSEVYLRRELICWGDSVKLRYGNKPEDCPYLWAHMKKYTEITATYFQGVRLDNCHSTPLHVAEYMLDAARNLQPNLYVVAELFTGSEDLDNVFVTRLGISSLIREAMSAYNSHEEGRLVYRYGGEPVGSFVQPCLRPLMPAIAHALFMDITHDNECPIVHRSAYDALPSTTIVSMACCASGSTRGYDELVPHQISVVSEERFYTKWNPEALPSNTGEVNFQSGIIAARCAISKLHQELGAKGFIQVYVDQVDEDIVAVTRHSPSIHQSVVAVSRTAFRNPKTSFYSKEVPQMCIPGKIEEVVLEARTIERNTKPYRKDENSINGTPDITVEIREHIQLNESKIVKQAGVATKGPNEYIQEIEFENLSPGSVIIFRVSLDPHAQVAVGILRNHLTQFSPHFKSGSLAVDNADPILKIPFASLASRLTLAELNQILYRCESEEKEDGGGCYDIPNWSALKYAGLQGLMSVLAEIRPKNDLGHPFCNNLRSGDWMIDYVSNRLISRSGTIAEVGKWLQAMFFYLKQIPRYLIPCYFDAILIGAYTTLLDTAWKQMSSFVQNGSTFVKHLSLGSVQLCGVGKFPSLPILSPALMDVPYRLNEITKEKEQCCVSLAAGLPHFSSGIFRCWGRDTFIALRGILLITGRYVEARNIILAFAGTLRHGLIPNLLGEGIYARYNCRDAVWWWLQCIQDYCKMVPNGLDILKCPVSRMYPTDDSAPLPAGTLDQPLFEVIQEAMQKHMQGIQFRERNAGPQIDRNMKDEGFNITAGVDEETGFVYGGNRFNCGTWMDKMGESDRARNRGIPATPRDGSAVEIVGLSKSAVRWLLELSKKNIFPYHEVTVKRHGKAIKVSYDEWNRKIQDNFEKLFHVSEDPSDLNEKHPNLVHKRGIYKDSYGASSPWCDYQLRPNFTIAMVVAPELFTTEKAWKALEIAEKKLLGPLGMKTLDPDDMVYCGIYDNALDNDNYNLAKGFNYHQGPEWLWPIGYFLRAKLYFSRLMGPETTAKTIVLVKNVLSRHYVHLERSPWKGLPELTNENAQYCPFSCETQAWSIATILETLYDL

As for `OC[C@H]1NC[C@H](O)[C@@H](O)[C@@H]1O` [1-deoxynojirimycin], the activity at 50 µM in the assay on cultured liver cells (relative to basal glucose production (no addition = 100 %), read-out: Glucose production Without glucagon) amounted to 89%; with cultured liver cells (setting [1]), 237%. Further, the IC50 in the assay on cultured liver cells (setting [2]) is greater than 100000 nM; in the assay on cultured liver cells (setting [3]), greater than 100000 nM; at liver α-1,6-glucosidase, 2400 nM; at Phosphorylase, greater than 200000 nM.
Consider `OC[C@H]1CNC[C@@H](O)[C@@H]1O` [Example 1, (3R,4R,5R)-3,4-dihydroxy-5-hydroxymethylpiperidine], for which the activity at 32 µM in the assay on cultured liver cells (relative to basal glucose production (no addition = 100 %), standardized to DNA, read-out: Glucose production Without glucagon) stood at 17%; with cultured liver cells (setting [1]), 32%. In addition, the results for the IC50 in the assay with cultured liver cells (setting [2]), in the assay on cultured liver cells (setting [3]) and at liver α-1,6-glucosidase were 1300 nM, 1600 nM and 77000 nM, respectively.
